Data published in US7166617B2, “Cyclic amide derivatives” (Mitsubishi Pharma Corporation, priority 2000, dated 2007).
pKi: −log10 of the molar value. Counter-ions that a name gives are not always drawn.

Target: T1, sigma 2 receptor (Rattus norvegicus, UniProt Q5U3Y7)
T1 construct: A crude P2 membrane fraction was prepared from livers of male rats (Sprague-Dawley rats); from tissue; host or cells: rat liver (male Sprague-Dawley), crude P2 membrane fraction
T1 sequence (Q5U3Y7 1-176): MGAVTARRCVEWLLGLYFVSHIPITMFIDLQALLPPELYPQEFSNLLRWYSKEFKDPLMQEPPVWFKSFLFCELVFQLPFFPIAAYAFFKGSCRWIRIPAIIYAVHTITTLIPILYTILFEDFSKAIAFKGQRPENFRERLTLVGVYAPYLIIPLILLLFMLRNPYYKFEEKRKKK
Assay: Sigma 2-selective receptor binding inhibition test ([3H]-DTG, rat liver P2 membrane fraction)
Details: [3H]-DTG 1 nM, 500 nM pentazocine; for pKi: P2 fraction of livers of male Sprague-Dawley rats, 25° C., 2 hours; for inhibition at 0.01 µM / Inhibitory rate against sigma 2 (%, 10 nM): test compound 10 nM, rat liver P2 fraction; for inhibition at 0.01 µM: read-out: Inhibitory rate against sigma 2 (%, 10 nM)
Experimental: Sigma Binding Site-Binding Inhibition Test
A crude P2 membrane fraction was prepared from livers of male rats (Sprague-Dawley rats) according to a method described in the literature (X. He, et al., J. Med. Chem., 36, pp. 566–571, 1993). In the presence of 500 nM pentazocine and a control compound at various concentrations (haloperidol, 10^−10 to 10^−6 M) or a test ligand at various concentrations (10^−10 to 10^−5 M) together with a radioactive ligand, the P2 fraction (0.4 ml) was incubated in 50 mM Tris-HCl (pH 7.4, final volume: 0.5 ml) at 25° C. for 2 hours. The reaction mixture was rapidly filtered on a Brandel cell harvester using Whatman GF/B filter paper, which was immersed beforehand in 0.5% polyethyleneimine for 1 hour, to stop the reaction. The filter paper was washed 4 times with the ice cooled incubation buffer. The non-specific results were evaluated by using 1 μM haloperidol, and the scintillation analysis and the curve analysis were performed as described above.

SMILES | pKi | inhibition at 0.01 µM | Inhibitory rate against sigma 2 (%, 10 nM)
O=C1c2ccc(Br)cc2CN1CC1CCN(CC(O)c2ccc(F)cc2)CC1 (racemic) [Example 17, (R,S)-5-Bromo-2-[[1-[2-(4-fluorophenyl)-2-hydroxyethyl]piperidin-4-yl]methyl]isoindolin-1-one hydrochloride] | 7.62 | – | –
O=C(CN1CCC(CN2Cc3ccccc3C2=O)CC1)c1ccc(F)cc1 [Example 1, 2-[[1-[2-(4-Fluorophenyl)-2-oxoethyl]piperidin-4-yl]methyl]isoindolin-1-one hydrochloride] | 7.89 | – | –
O=C(CN1CCC(CN2Cc3c(Br)cccc3C2=O)CC1)c1ccc(F)cc1 [Example 2, 4-Bromo-2-[[1-[2-(4-fluorophenyl)-2-oxoethyl]piperidin-4-yl]methyl]isoindolin-1-one hydrochloride] | 8.55 | – | –
O=C(CN1CCC(CN2Cc3cc(Br)ccc3C2=O)CC1)c1ccc(F)cc1 [Example 3, 5-Bromo-2-[[1-[2-(4-fluorophenyl)-2-oxoethyl]piperidin-4-yl]methyl]isoindolin-1-one hydrochloride] | 8.15 | – | –
O=C(CN1CCC(CN2Cc3ccc(Br)cc3C2=O)CC1)c1ccc(F)cc1 [Example 4, 6-Bromo-2-[[1-[2-(4-fluorophenyl)-2-oxoethyl]piperidin-4-yl]methyl]isoindolin-1-one hydrochloride] | 8.12 | – | –
O=C(CN1CCC(CN2Cc3c(F)cccc3C2=O)CC1)c1ccc(F)cc1 [Example 6, 4-Fluoro-2-[[1-[2-(4-fluorophenyl)-2-oxoethyl]piperidin-4-yl]methyl]isoindolin-1-one hydrochloride] | 8.06 | – | –
O=C(CN1CCC(CN2Cc3ccc(F)cc3C2=O)CC1)c1ccc(F)cc1 [Example 7, 6-Fluoro-2-[[1-[2-(4-fluorophenyl)-2-oxoethyl]piperidin-4-yl]methyl]isoindolin-1-one hydrochloride] | 7.80 | – | –
O=C(CN1CCC(CN2Cc3cc(Cl)ccc3C2=O)CC1)c1ccc(F)cc1 [Example 8, 5-Chloro-2-[[1-[2-(4-fluorophenyl)-2-oxoethyl]piperidin-4-yl]methyl]isoindolin-1-one hydrochloride] | 8.51 | – | –
COc1ccc2c(c1)CN(CC1CCN(CC(=O)c3ccc(F)cc3)CC1)C2=O [Example 9, 5-Methyloxy-2-[[1-[2-(4-fluorophenyl)-2-oxoethyl]piperidin-4-yl]methyl]isoindolin-1-one hydrochloride] | 8.31 | – | –
O=C(CN1CCC(CN2Cc3ccccc3C2=O)CC1)c1ccccc1 [Example 13, 2-[[1-(2-Phenyl-2-oxoethyl)piperidin-4-yl]methyl]isoindolin-1-one hydrochloride] | 8.18 | – | –
O=C(CN1CCC(CN2Cc3ccsc3C2=O)CC1)c1ccc(F)cc1 [Example 22, 5-[[1-[2-(4-Fluorophenyl)-2-oxoethyl]piperidin-4-yl]methyl]-4,5-dihydro-6H-thieno[2,3-c]pyrrol-6-one hydrochloride] | 7.66 | – | –
CC(C)(C)C(=O)CN1CCC(CN2Cc3ccccc3C2=O)CC1 [Example 24, 2-[[1-(3,3-Dimethyl-2-oxobutyl)piperidin-4-yl]methyl]isoindolin-1-one hydrochloride] | 7.89 | – | –
COc1ccccc1CCN1CCC(CN2Cc3ccccc3C2=O)CC1 [Example 26, 2-[[1-[2-(2-Methoxyphenyl)ethyl]piperidin-4-yl]methyl]isoindolin-1-one hydrochloride] | 8.00 | – | –
O=C(CCN1CCC(CN2Cc3ccccc3C2=O)CC1)c1ccccc1 [Example 30, 2-[[1-[3-Phenyl-3-oxopropyl]piperidin-4-yl]methyl]isoindolin-1-one hydrochloride] | 7.66 | – | –
O=C(CCCN1CCC(CN2Cc3ccccc3C2=O)CC1)c1ccc(F)cc1 [Example 31, 2-[[1-[4-(4-Fluorophenyl)-4-oxobutyl]piperidin-4-yl]methyl]isoindolin-1-one hydrochloride] | 7.66 | – | –
O=C1c2ccccc2CN1CC1CCN(CCOc2ccc(F)cc2)CC1 [Example 32, 2-[[1-[2-(4-Fluorophenyloxy)ethyl]piperidin-4-yl]methyl]isoindolin-1-one hydrochloride] | 8.55 | – | –
O=C1c2ccccc2CN1CC1CCN(CCc2c[nH]c3ccccc23)CC1 [Example 36, 2-[[1-[2-(Indol-3-yl)ethyl]piperidin-4-yl]methyl]isoindolin-1-one ½.fumarate] | 7.30 | – | –
O=C1c2ccccc2CN1CC1CCN(CC(=O)N2CCCc3ccccc32)CC1 [Example 48, 2-[[1-[2-(1,2,3,4-Tetrahydroquinolin-1-yl)-2-oxoethyl]piperidin-4-yl]methyl]isoindolin-1-one hydrochloride] | – | 59% | –
O=C(CN1CCC(CN2Cc3ccccc3C2=O)CC1)N1CCCCC1 [Example 50, 2-[[1-[2-Oxo-2-(piperidin-1-yl)ethyl]piperidin-4-yl]methyl]isoindolin-1-one fumarate] | 7.85 | 52% | –
O=C1c2ccccc2CN1CC1CCN(CC(=O)N2CCc3ccccc32)CC1 [Example 51, 2-[[1-[2-(Indolin-1-yl)-2-oxoethyl]piperidin-4-yl]methyl]isoindolin-1-one fumarate] | – | 74% | –
O=C1c2ccccc2CN1CC1CCN(CCN2CCc3ccccc32)CC1 [Example 53, 2-[[1-[2-(Indolin-1-yl)ethyl]piperidin-4-yl]methyl]isoindolin-1-one fumarate] | – | 57% | –
CCCCn1cccc1C(=O)CN1CCC(CN2Cc3ccccc3C2=O)CC1.Cl [Example 94, 2-[[1-[2-[2-(1-Butyl)pyrrolyl]-2-oxoethyl]piperidin-4-yl]methyl]isoindolin-1-one hydrochloride] | – | – | 83%

Second part, the compound after the results:

pKi | inhibition at 0.01 µM | Inhibitory rate against sigma 2 (%, 10 nM) | SMILES
– | 55% | – | COc1ccccc1C(=O)CN1CCC(CN2Cc3ccccc3C2=O)CC1 [Example 72, 2-[[1-[2-(2-Methoxyphenyl)-2-oxoethyl]piperidin-4-yl]methyl]isoindolin-1-one fumarate]
– | 84% | – | O=C(CN1CCC(CN2Cc3ccccc3C2=O)CC1)c1cccc(Cl)c1 [Example 76, 2-[[1-[2-(3-Chlorophenyl)-2-oxoethyl]piperidin-4-yl]methyl]isoindolin-1-one fumarate]
– | 80% | – | Cc1ccccc1C(=O)CN1CCC(CN2Cc3ccccc3C2=O)CC1 [Example 77, 2-[[1-[2-(2-Tolyl)-2-oxoethyl]piperidin-4-yl]methyl]isoindolin-1-one fumarate]
– | 86% | – | Cc1cccc(C(=O)CN2CCC(CN3Cc4ccccc4C3=O)CC2)c1 [Example 78, 2-[[1-[2-(3-Tolyl)-2-oxoethyl]piperidin-4-yl]methyl]isoindolin-1-one fumarate]
8.47 | 58% | – | O=C(CN1CCC(CN2Cc3ccccc3C2=O)CC1)C1CCCCC1 [Example 84, 2-[[1-(2-Cyclohexyl-2-oxoethyl)piperidin-4-yl]methyl]isoindolin-1-one fumarate]
– | 59% | – | O=C1c2ccccc2CN1CC1CCN(CC(O)C2CCCCC2)CC1 (centres unmarked) [Example 85, 2-[[1-(2-Cyclohexyl-2-hydroxyethyl)piperidin-4-yl]methyl]isoindolin-1-one fumarate]
– | – | 69% | Cl.O=C(CN1CCC(CN2Cc3ccccc3C2=O)CC1)c1cccn1-c1ccccc1 [Example 95, 2-[[1-[2-[2-(1-Phenyl)pyrrolyl]-2-oxoethyl]piperidin-4-yl]methyl]-isoindolin-1-one hydrochloride]
– | 66% | – | O=C1c2ccccc2CN1CC1CCN(CCc2ccccc2C(F)(F)F)CC1 [Example 96, 2-[[1-[2-(2-Trifluoromethylphenyl)ethyl]piperidin-4-yl]methyl]-isoindolin-1-one fumarate]
– | 59% | – | O=C1c2ccccc2CN1CC1CCN(CCc2cccc3ccccc23)CC1 [Example 97, 2-[[1-[2-(1-Naphthyl)ethyl]piperidin-4-yl]methyl]isoindolin-1-one fumarate]
– | 68% | – | O=C1c2ccccc2CN1CC1CCN(CCSc2ccccc2)CC1 [Example 109, 2-[[1-[2-(Phenylthio)ethyl]piperidin-4-yl]methyl]isoindolin-1-one fumarate]
– | – | 68% | COc1ccccc1SCCN1CCC(CN2Cc3ccccc3C2=O)CC1.O=C(O)/C=C/C(=O)O [Example 110]
– | 51% | – | COc1cccc(SCCN2CCC(CN3Cc4ccccc4C3=O)CC2)c1 [Example 111, 2-[[1-[2-(3-Methoxyphenylthio)ethyl]piperidin-4-yl]methyl]isoindolin-1-one fumarate]
– | 60% | – | O=C1c2ccccc2CN1CC1CCN(CCSc2ccccc2F)CC1 [Example 112, 2-[[1-[2-(2-Fluorophenylthio)ethyl]piperidin-4-yl]methyl]isoindolin-1-one fumarate]
– | 64% | – | O=C1c2ccccc2CN1CC1CCN(CCSc2cccc(F)c2)CC1 [Example 113, 2-[[1-[2-(3-Fluorophenylthio)ethyl]piperidin-4-yl]methyl]isoindolin-1-one fumarate]
